Experimental data: US20230295133A1, “PROCESS FOR PREPARING A COMPOUND USEFUL TO TREAT MYCOSES” (PULMOCIDE LIMITED, priority 2014, published 2023)
≈ marks a conversion by molar mass, not a printed value. Where two headings read alike, the source gives them in different places.

Key:
[1] = tested on: Aspergillus fumigatus NCPF2010; assay: Broth microdilution assay (modified EUCAST); format: cell-based; conditions: Aspergillus fumigatus
Outline: (§1)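 Spores from 3-day Sabouraud cultures (working suspension 2 × 10^5 spores/mL) were added to an equal volume of RPMI-1640 (2 mM L-glutamine, 0.5% BSA, 2% glucose, 0.165 M MOPS, pH 7) containing compound, in quadruplicate. After 48 hr at 35 °C, OD530 gave percent inhibition. MIC50, MIC75 and MIC90 came from concentration-response curves.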

[2] = tested on: Aspergillus fumigatus L98H (TR34/L98H); assay: Broth microdilution assay (modified EUCAST); format: cell-based; conditions: Aspergillus fumigatus, read-out: MIC75 against Aspergillus fumigatus isolate L98H
Outline: as §1

[3] = tested on: Aspergillus fumigatus NCPF7099; assay: Broth microdilution assay (modified EUCAST); format: cell-based; conditions: Aspergillus fumigatus, NCPF7099, n = 3, read-out: MIC75 against Aspergillus fumigatus isolate NCPF7099
Outline: as §1

[4] = tested on: aspergillus fumigatus infection of BEAS2B cells; assay: Aspergillus fumigatus infection of bronchial epithelial cells (GM in supernatant); format: cell-based; conditions: Aspergillus fumigatus, read-out: MIC50 Infection of BEAS2B cells
Outline: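 BEAS2B cells in 10% FBS RPMI-1640 pre-treated with compound (0.5% DMSO final) for 1 hr at 35 °C, then infected with A. fumigatus conidia (0.5×10^5/ml suspension) for 24 hr at 35 °C. Galactomannan in 1:20-diluted supernatant measured by Platelia GM-EIA; IC50 from percent-inhibition concentration-response curves.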

[5] = Cell viability: resazurin assay; format: cell-based, human; conditions: human, BEAS2B cells; n = 3-5
Outline: (§2)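 BEAS2B cells in RPMI-LHC8, exposed to compound for 1 day at 37 °C (0.5% DMSO final), then resazurin added for a further 4 h. Fluorescence (ex 545/em 590 nm) gives % viability loss vs 0.5% DMSO vehicle; CC50 from concentration-response curve.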

[6] = tested on: Aspergillus fumigatus (NCPF2010); assay: Resazurin-microtitre assay of planktonic fungus growth; format: cell-based; conditions: Aspergillus fumigatus
Procedure: This assay was conducted using a modified, published method (Monteiro et al., 2012). Spores of aspergillus fumigatus (NCPF2010, Public Health England, Wiltshire) were cultured in Sabouraud dextrose agar for 3 days. A stock spore suspension was prepared from a Sabouraud dextrose agar culture by washing with PBS-tween (10 mL; PBS containing 0.05% Tween-20, 100 U/mL Penicillin and 100 U/mL Streptomycin). The spore count was assessed using a Neubauer haemocytometer and, using PBS adjusted to 10^6 spores/mL. A working suspension of spores (10^4 spores/mL) was prepared in filter sterilised MOPS RPMI-1640 (50 mL; RPMI-1640 containing 2 mM L-glutamine, 2% glucose and 0.165 M MOPS, buffered to pH 7 with NaOH). Resazurin sodium salt (100 µL of 1% solution; Sigma-Aldrich, Dorset, UK) was added to the spore suspension and mixed well. The spore suspension-resazurin mixture (100 µL/well) was added to 384-well plates (Catalogue number 353962, BD Falcon, Oxford, UK).
Simultaneously, test compounds (0.5 µL DMSO solution) were added to 100 µL of the spore-resazurin mixture in quadruplicate to provide a final DMSO solution of 0.5% using an Integra VIAFLO 96 (Intergra, Zizers, Switzerland). For non-spore control wells, MOPS-RPMI-resazurin solution (100 µL) was added instead of the spore-resazurin mixture. The plate was covered with a Breathe Easier membrane (Catalogue No Z763624, Sigma-Aldrich, Dorset, UK), and incubated (35° C., 5% CO2) until fluorescence in the inoculated wells was double that of the control wells (around 24 hr). The fluorescence of each well (545 nm (excitation) / 590 nm (emission), gain 800, focal height 5.5 mm) was determined using a multi-scanner (Clariostar: BMG, Buckinghamshire, UK). The percentage inhibition for each well was calculated and the MIC50, MIC75 and MIC90 values were calculated from the concentration-response curve generated for each test compound.

[7] = tested on: aspergillus fumigatus (ATCC 13073 [strain: NIH 5233]); assay: In vivo anti-fungal activity, prophylactic and therapeutic treatment of infected immunocompromised neutropenic mice; parameters: species or system A/J mice; conditions: prophylactic treatment (days 0, 1, 2 and 3); 0.4 mg/mL
[8] = tested on: Aspergillus fumigatus NCPF7100; assay: Broth microdilution assay (modified EUCAST); format: cell-based; conditions: Aspergillus fumigatus, NCPF7100, read-out: MIC75 against Aspergillus fumigatus isolate NCPF7100
[9] = tested on: Cryptococcus neoformans ATCC24067; assay: Fungus panel screening, CLSI broth microdilution; format: cell-based
Procedure: (§3) Fungus panel screening was conducted by Eurofins Panlabs Inc. The MIC and MIC50 values of the test articles were determined following the guidelines of the Clinical and Laboratory Standards Institute, broth microdilution methods for yeast (CLSI M27-A2), (CLSI, 2002) and for filamentous fungi (CLSI M38-A), (CLSI, 2008).

[10] = tested on: Aspergillus flavus ATCC204304; assay: Fungus panel screening, CLSI broth microdilution; format: cell-based
Procedure: as §3

[11] = tested on: Chaectomium globosum ATCC44699; assay: Fungus panel screening, CLSI broth microdilution; format: cell-based
Procedure: as §3

[12] = tested on: BEAS2B cells; assay: Cell viability: resazurin assay; format: cell-based, human; conditions: n = 3-5
Outline: as §2

[13] = 50% inhibition by visual inspection (CLSI)
[14] = 100% inhibition by visual inspection (CLSI), read-out: MIC100

Compound: Cc1cc(N2CCN(c3ccc(C(=O)Nc4ccc(F)cc4F)cc3)CC2)ccc1OC[C@@H]1CO[C@@](Cn2cncn2)(c2ccc(F)cc2F)C1 [Example 2, 4-(4-(4-(((3R,5R)-5-((1H-1,2,4-Triazol-1-yl)Methyl)-5-(2,4-Difluorophenyl) Tetrahydrofuran-3-yl)Methoxy)-3-Methylphenyl)Piperazin-1-yl)-N-(2,4-Difluorophenyl) Benzamide]
- MIC ([1]; NCPF2010, read-out: MIC75 against Aspergillus fumigatus isolate NCPF2010): 0.007 µM (≈ 4.91 ng/mL)
- MIC [2]: 0.0816 µM (≈ 57.2 ng/mL)
- MIC [3]: 0.0283 µM (≈ 19.8 ng/mL)
- MIC50 [4]: 0.00142 µM (≈ 0.995 ng/mL)
- CC50 at 1 day [5]: > 14.3 µM
- MIC50 ([6]; NCPF2010, read-out: MIC50 Planktonic fungal growth): 0.00074 µM (≈ 0.519 ng/mL)
- MIC ([6]; NCPF2010, read-out: MIC75 Planktonic fungal growth): 0.00306 µM (≈ 2.14 ng/mL)
- % Inhibition versus Infected Controls, GM in BALF [7]: 43%
- % Inhibition versus Infected Controls, GM in serum [7]: 27%
- % Inhibition versus Infected Controls, Lung Fungal Load [7]: 25%
- MIC [8]: 0.0213 µM (≈ 14.9 ng/mL)

Compound: C[C@@H](c1ncncc1F)[C@](O)(Cn1cncn1)c1ccc(F)cc1F [Voriconazole]
- MIC50 [9, 13]: 0.016 µg/mL (≈ 0.0458 µM)
- MIC [9, 14]: 1 µg/mL (≈ 2.86 µM)
- MIC50 [10, 13]: 1 µg/mL (≈ 2.86 µM)
- MIC [10, 14]: 2 µg/mL (≈ 5.73 µM)
- MIC50 [11, 13]: 0.5 µg/mL (≈ 1.43 µM)
- MIC [11, 14]: 1 µg/mL (≈ 2.86 µM)
- MIC ([1]; NCPF2010, broth microdilution assay, n = 3, read-out: MIC75 against Aspergillus fumigatus isolate NCPF2010): 0.496 µM (≈ 173 ng/mL)
- CC50 [12]: > 28.6 µM
